Results taken from PubChem BioAssay AID652053 (Broad Institute, 2013).

Tested on: Huh7 psiCHECK-miR122 Renilla luciferase reporter, 48 h
Assay: suppression of miR-122 activity, Renilla luciferase sensor – cell-based, Huh7 psiCHECK-miR122, cherry-pick, dose response (AID 652053)

Row | Structure (SMILES) | AC40 [µM]
1 | COc1cc(C)c(C(C)C)cc1S(=O)(=O)n1cnc(C)c1 | 2.65
2 | COc1ccccc1NS(=O)(=O)c1cc(NC(=O)c2cccc(S(=O)(=O)N(C)C)c2)ccc1N1CCOCC1 | 0.776
3 | COc1ccccc1CNC(=O)C[C@@H]1CC[C@H]2[C@H](COc3ccc(NC(C)=O)cc3C(=O)N2C)O1 | 22
4 | O=C(COc1ccc(S(=O)(=O)NC2CCCCC2)cc1)Nc1ccc2c(c1)OCCO2 | 7.82
5 | C[C@H](CO)N1C[C@H](C)[C@H](CN(C)Cc2ccc(C(=O)Nc3ccccc3N)cc2)Oc2c(NS(=O)(=O)c3ccccc3)cccc2C1=O | 16.1
6 | O=C(C1CCCCC1)N1C[C@H]2[C@@H](c3ccccc31)[C@@H](CO)N2C(=O)c1ccccc1 | 1.37
7 | CCOC(=O)CNS(=O)(=O)c1cc(-c2nnc(Nc3ccc4c(c3)OCO4)c3ccccc23)ccc1C | 2.63
8 | CN1CC(c2ccc(C#N)cc2)C2(COc3ccccc3C2=O)C12C(=O)Nc1ccccc12 (stereo not given) | 3.69
9 | Cc1ccc(C2=NN3C(C(=O)c4ccccc4)Oc4ccccc4C3C2)cc1 (stereo not given) | 4.05
10 | CC(=O)Nc1ccc(S(=O)(=O)Nc2cccc(-c3csc(C)n3)c2)cc1 | 8.21
11 | CCC(C)c1ccc(NC(=S)NCc2cccs2)cc1 (stereo not given) | 10.1
12 | Cc1noc(C)c1S(=O)(=O)N(C)C[C@@H]1Oc2c(NC(=O)c3cnccn3)cccc2C(=O)N([C@@H](C)CO)C[C@@H]1C | 5.81
13 | Cc1cc(NS(=O)(=O)c2ccccc2)cc(Cl)c1O | 21.1
14 | Cc1ccc(C(C)(C)C)cc1S(=O)(=O)Nc1cccc(S(=O)(=O)NC2=NCCC2)c1 | 5.86
15 | O=S(Cc1ccccc1)CC(O)(c1ccc(Cl)cc1)c1ccc(Cl)cc1 (stereo not given) | 10.5
16 | CCOc1ccccc1N(CC(=O)Nc1cccnc1)S(=O)(=O)c1ccc(C)cc1 | 8.03
17 | COc1ccc(NS(=O)(=O)c2cc(NC(=O)c3ccc(=O)[nH]c3)ccc2N2CCCC2)cc1 | 0.424
18 | C[C@@H]1CN([C@H](C)CO)C(=O)Cc2cc(NS(=O)(=O)c3ccc(Cl)cc3)ccc2O[C@@H]1CN(C)C(=O)Nc1ccc(C(F)(F)F)cc1 | 6.38
19 | O=C(c1ccccc1)C(O)(Cc1ccccc1)c1ccccc1 (stereo not given) | 8.14
20 | C[C@H](CO)N1C[C@H](C)[C@H](CN(C)Cc2ccc(C(=O)Nc3ccccc3N)cc2)Oc2ccc(NC(=O)Nc3ccc(F)cc3)cc2CC1=O | 9.84
21 | O=S(=O)(NCCC1=CCCCC1)c1ccccc1Cl | 3.9
22 | O=S(=O)(NCCc1ccc(F)cc1)c1cc(C(F)(F)F)ccc1Br | < 0.26
23 | Cc1cccc(NS(=O)(=O)c2ccc(C)c(C(=O)OCC(=O)Nc3cc(C)on3)c2)c1 | 4.46
24 | CN1C(=O)c2cccc3c(S(=O)(=O)NCCc4ccccc4)ccc1c23 | 0.281

Row | Structure (SMILES) | AC40 [µM]
25 | O=C(Cc1ccccc1)N1C[C@H]2[C@@H](c3ccccc31)[C@@H](CO)N2C(=O)c1ccc(F)cc1 | 5.37
26 | CCOC(=O)c1c(S(=O)(=O)Nc2cccc(Cl)c2)c(C)n(C)c1C | 1.08
27 | COc1ccc(S(=O)(=O)NC2CC3CCC2C3)cc1Cl (stereo not given) | 4.66
28 | CCCCNS(=O)(=O)c1ccc(NC(=O)c2cccs2)cc1 | 1.09
29 | CN1CC(c2ccccc2Cl)C2(COc3ccccc3C2=O)C12C(=O)Nc1ccccc12 (stereo not given) | 2.2
30 | COc1ccccc1CN(C)C(=O)c1cccc(S(=O)(=O)N2CCCc3ccccc32)c1 | 4.57
31 | COc1ccc(CN(C)C[C@H]2Oc3c(NC(=O)NC4CCCCC4)cccc3C(=O)N([C@H](C)CO)C[C@@H]2C)cc1 | 5.06
32 | O=c1c2ccccc2nnn1CSc1nnc(C2COc3ccccc3O2)n1-c1ccccc1 (stereo not given) | 19.2
33 | C=CCNc1cc(F)ccc1S(=O)(=O)NCC=C | 1.03
34 | CSc1ccc(S(=O)(=O)NC2CC3CCC2C3)cc1 (stereo not given) | 5.6
35 | C[C@@H]1CN([C@@H](C)CO)C(=O)Cc2cc(N(C)C)ccc2O[C@@H]1CN(C)Cc1ccc(C(=O)Nc2ccccc2N)cc1 | 10
36 | O=C(c1cccc(F)c1)N1C[C@H]2[C@@H](c3ccccc31)[C@@H](CO)N2C(=O)c1ccc(F)cc1 | 1.08
37 | Cc1ccc(S(=O)(=O)Nc2cccc(-c3ccc4nncn4n3)c2)cc1 | 9.35
38 | CCOC(=O)c1c(C)[nH]c(C)c1S(=O)(=O)NCCCc1ccco1 | 5.96
39 | COc1ccc(NC(=O)C2CCC2)cc1S(=O)(=O)Nc1cc(C)ccc1Br | 0.985
40 | CCc1ccc(-c2cc(C)no2)cc1S(=O)(=O)Nc1ccc(C)cn1 | 2.33
41 | Cc1ccc(NS(=O)(=O)c2cccc(C(=O)N(C)Cc3cccs3)c2)cc1 | 3.04
42 | CCc1ccc(-c2cc(C)no2)cc1S(=O)(=O)NC(C)Cc1ccco1 (stereo not given) | < 0.26
43 | C[C@@H]1CN([C@H](C)CO)C(=O)c2cccc(N(C)C)c2O[C@H]1CN(C)C(=O)Nc1ccccc1 | 1.33
44 | Cc1ccccc1NC(=O)Nc1ccc2c(c1)C(=O)N(C)[C@H]1CC[C@H](CC(=O)NCC3CC3)O[C@H]1CO2 | 1.87
45 | CCCCn1nnnc1C(c1cccc(OC)c1OC)N1CCC2(CC1)C(=O)NCN2c1ccccc1 (stereo not given) | 2.44
46 | COC(=O)c1c(C)oc(C)c1S(=O)(=O)NCC1CC1 | 3.29
47 | COC(=O)c1c(NC(=O)c2ccc(C)c(S(=O)(=O)Nc3ccccc3C)c2)sc2c1CCCC2 | < 0.26
48 | Cc1cc(C)c(-n2nnnc2SCC(=O)c2cccs2)c(C)c1 | 14.9

Row | Structure (SMILES) | AC40 [µM]
49 | O=C(Nc1sc2c(c1C(=O)O)CCCCC2)c1ccco1 | 2.49
50 | CNC(=O)NC(=O)C(C)OC(=O)c1ccc(Cl)c(S(=O)(=O)Nc2ccc(F)cc2)c1 (stereo not given) | 7.64
51 | COc1ccc(NS(=O)(=O)c2cc(-c3cnc(C4CC4)o3)ccc2C)cc1 | 5.35
52 | COc1ccccc1N/C(=N/S(=O)(=O)c1ccc(C)cc1)c1ccccc1 | 9.99
53 | COc1ccc(NS(=O)(=O)c2cc(NC(=O)c3sccc3C)ccc2N2CCOCC2)cc1 | < 0.26
54 | CN1C(=O)c2cc(NC(=O)NCc3ccccc3)ccc2OC[C@@H]2O[C@H](CC(=O)NCC3CCCCC3)CC[C@@H]21 | 0.358
55 | COCC(=O)Nc1ccc(S(=O)(=O)NCCc2ccccc2)cc1 | 12.9
56 | O=C(C1CCC1)N1CCc2cc(S(=O)(=O)NCc3ccco3)ccc21 | 12.3
57 | CCC(=O)Nc1ccc(S(=O)(=O)NCCc2ccccc2)cc1 | 10.7
58 | CCn1cc(S(=O)(=O)CC(=O)Nc2ccc(C)cc2)c2ccccc21 | 15.1
59 | C=C(C)CN(CC)C(=O)COc1ccc(S(=O)(=O)Nc2ccc(OC)cc2)cc1 | 7.78
60 | COc1ccccc1NS(=O)(=O)c1cc(N/C(=N/S(=O)(=O)c2ccccc2)c2ccc(F)cc2)ccc1Cl | 3.27
61 | O=C(c1ccc(F)cc1)N1C[C@H]2[C@@H](c3ccccc31)[C@@H](CO)N2Cc1ccc2c(c1)OCO2 | 17.3
62 | COc1ccc(S(=O)(=O)Nc2ccc3c(c2)C(=O)N([C@@H](C)CO)C[C@H](C)[C@H](CN(C)C(=O)Nc2ccccc2)OCCCC[C@@H](C)O3)cc1 | 29.6
63 | COc1ccc(N2CCN(C(=O)c3csc4ccccc34)CC2)cc1 | 15.9
64 | Cc1csc2c(=O)sc(NC(=O)c3ccco3)nc12 | 14.5
65 | COc1ccc(NS(=O)(=O)c2cc(C)ccc2C)cc1 | 1.47
66 | O=S(=O)(NCCc1ccccc1)c1cccc(S(=O)(=O)N2CCOCC2)c1 | 6
67 | CCCNC(=O)C[C@@H]1CC[C@H]2[C@H](COc3ccc(NC(=O)Nc4ccccc4F)cc3C(=O)N2C)O1 | 2.53
68 | Cc1cc(C)c(C)c(S(=O)(=O)NC2CCN(Cc3ccccc3)CC2)c1C | 9.53
69 | FC(F)(F)c1cccc(NC(=S)NCCc2ccccn2)c1 | 2.88
70 | CC(C)C#Cc1ccc2c(c1)O[C@H](CN(C)C(=O)Nc1ccccc1)[C@@H](C)CN([C@@H](C)CO)S2(=O)=O | 2.08
